Assay results as given in the NIST ThermoML archive (doi:10.1016/j.jct.2018.12.006).

Assay: molar heat capacity at constant pressure
Settings: Crystal, Small (less than 1 g) adiabatic calorimetry

C[N+](C)(C)C[C@H](O)CC(=O)[O-] [(R)-3-hydroxy-4-(trimethylammonio)butanoate]
Settings	molar heat capacity at constant pressure [J/K/mol]
5 K, 101.33 kPa	0.29
6.08 K, 100 kPa	0.53
6.27 K, 100 kPa	0.571
6.41 K, 100 kPa	0.622
6.56 K, 100 kPa	0.669
6.69 K, 100 kPa	0.727
6.83 K, 100 kPa	0.774
6.95 K, 100 kPa	0.787
7.08 K, 100 kPa	0.832
7.19 K, 100 kPa	0.851
7.48 K, 100 kPa	0.985
7.82 K, 100 kPa	1.107
8.18 K, 100 kPa	1.278
8.52 K, 100 kPa	1.441
8.75 K, 100 kPa	1.53
9.06 K, 100 kPa	1.689
9.34 K, 100 kPa	1.836
9.62 K, 100 kPa	2.018
9.93 K, 100 kPa	2.207
10 K, 101.33 kPa	2.25
10.24 K, 100 kPa	2.402
10.56 K, 100 kPa	2.616
10.88 K, 100 kPa	2.869
11.21 K, 100 kPa	3.127
11.62 K, 100 kPa	3.417
11.9 K, 100 kPa	3.675
12.69 K, 100 kPa	4.369
13.96 K, 100 kPa	5.657
15 K, 101.33 kPa	6.89
15.22 K, 100 kPa	7.205
16.5 K, 100 kPa	8.836
17.79 K, 100 kPa	10.57
19.1 K, 100 kPa	12.27
20 K, 101.33 kPa	13.41
20.43 K, 100 kPa	13.99
22.35 K, 100 kPa	16.18
24.86 K, 100 kPa	19.02
25 K, 101.33 kPa	19.34
27.27 K, 100 kPa	21.98
29.7 K, 100 kPa	24.73
30 K, 101.33 kPa	25.01
32.15 K, 100 kPa	27.39
34.61 K, 100 kPa	30.12
35 K, 101.33 kPa	30.61
37.06 K, 100 kPa	32.92
39.52 K, 100 kPa	35.77
40 K, 101.33 kPa	36.27
41.98 K, 100 kPa	38.6
44.45 K, 100 kPa	41.3
45 K, 101.33 kPa	41.94
46.92 K, 100 kPa	43.9
49.4 K, 100 kPa	46.7
50 K, 101.33 kPa	47.51
51.56 K, 100 kPa	49.36
53.43 K, 100 kPa	51.37
55.31 K, 100 kPa	53.34
57.23 K, 100 kPa	55.32
59.08 K, 100 kPa	57.13
60 K, 101.33 kPa	57.97
60.96 K, 100 kPa	58.68
62.84 K, 100 kPa	60.64
64.71 K, 100 kPa	62.32
66.57 K, 100 kPa	64.28
68.43 K, 100 kPa	65.98
70 K, 101.33 kPa	67.35
70.29 K, 100 kPa	67.73
72.16 K, 100 kPa	69.2
74.04 K, 100 kPa	70.9
75.9 K, 100 kPa	72.29
77.76 K, 100 kPa	74.17
79.61 K, 100 kPa	75.69
80 K, 101.33 kPa	75.9
81.77 K, 100 kPa	77.54
84.24 K, 100 kPa	79.31
84.82 K, 100 kPa	79.43
86.69 K, 100 kPa	81.13
88.65 K, 100 kPa	82.96
90 K, 101.33 kPa	83.98
92.22 K, 100 kPa	85.77
95.79 K, 100 kPa	88.51
99.36 K, 100 kPa	91.34
100 K, 101.33 kPa	91.81
102.92 K, 100 kPa	94.28
106.48 K, 100 kPa	96.97
110 K, 101.33 kPa	99.54
110.02 K, 100 kPa	99.66
113.57 K, 100 kPa	102.4
117.1 K, 100 kPa	105
120 K, 101.33 kPa	107.5
120.63 K, 100 kPa	107.7
124.16 K, 100 kPa	110.4
127.68 K, 100 kPa	113
130 K, 101.33 kPa	114.7
131.19 K, 100 kPa	115.4
134.7 K, 100 kPa	117.9
138.2 K, 100 kPa	120.5
140 K, 101.33 kPa	121.6
141.66 K, 100 kPa	122.9
145.14 K, 100 kPa	125.4
148.61 K, 100 kPa	127.8
150 K, 101.33 kPa	128.6
152.07 K, 100 kPa	130.3
155.53 K, 100 kPa	132.7
158.97 K, 100 kPa	135
160 K, 101.33 kPa	135.8
162.41 K, 100 kPa	137.4
165.85 K, 100 kPa	139.7
169.27 K, 100 kPa	142.1
170 K, 101.33 kPa	142.8
172.68 K, 100 kPa	144.4
176.08 K, 100 kPa	146.7
179.48 K, 100 kPa	149
180 K, 101.33 kPa	149.2
182.87 K, 100 kPa	151.1
186.24 K, 100 kPa	153.1
189.61 K, 100 kPa	154.7
190 K, 101.33 kPa	154.7
192.97 K, 100 kPa	156.2
196.22 K, 100 kPa	157.8
199.57 K, 100 kPa	159.7
200 K, 101.33 kPa	160.1
202.89 K, 100 kPa	161.9
203.31 K, 100 kPa	162.1
206.21 K, 100 kPa	163.8
206.83 K, 100 kPa	163.9
209.52 K, 100 kPa	165.7
210 K, 101.33 kPa	166
210.24 K, 100 kPa	166.4
212.83 K, 100 kPa	167.6
213.66 K, 100 kPa	168.2
216.13 K, 100 kPa	169.6
219.43 K, 100 kPa	171.7
220 K, 101.33 kPa	172.2
222.71 K, 100 kPa	173.9
225.97 K, 100 kPa	176
229.25 K, 100 kPa	178.3
230 K, 101.33 kPa	178.6
232.54 K, 100 kPa	180.4
235.81 K, 100 kPa	182.5
239.07 K, 100 kPa	184.6
240 K, 101.33 kPa	185.1
242.32 K, 100 kPa	186.7
245.56 K, 100 kPa	188.8
248.62 K, 100 kPa	190.6
250 K, 101.33 kPa	191.6
251.85 K, 100 kPa	192.6
255.07 K, 100 kPa	194.8
257.5 K, 100 kPa	196.2
260 K, 101.33 kPa	198.2
260.89 K, 100 kPa	199.2
264.26 K, 100 kPa	200.6
267.64 K, 100 kPa	203.5
270 K, 101.33 kPa	205
271 K, 100 kPa	205.7
273.15 K, 101.33 kPa	207.2
274.35 K, 100 kPa	208.2
277.7 K, 100 kPa	210.3
280 K, 101.33 kPa	211.9
281.03 K, 100 kPa	212.6
284.35 K, 100 kPa	214.7
287.63 K, 100 kPa	217.8
290 K, 101.33 kPa	218.9
290.92 K, 100 kPa	219.8
294.21 K, 100 kPa	221
297.46 K, 100 kPa	224.2
298.15 K, 101.33 kPa	224.7
300 K, 101.33 kPa	226
300.21 K, 100 kPa	225.9
302.94 K, 100 kPa	227.7
306.14 K, 100 kPa	230.3
309.33 K, 100 kPa	232.6
310 K, 101.33 kPa	233.1
312.5 K, 100 kPa	234.8
315.65 K, 100 kPa	237.1
318.79 K, 100 kPa	239.5
320 K, 101.33 kPa	240.1
321.91 K, 100 kPa	241.3
325.01 K, 100 kPa	243.5
328.09 K, 100 kPa	245.8
330 K, 101.33 kPa	247.2
331.16 K, 100 kPa	248.1
334.21 K, 100 kPa	250.7
337.21 K, 100 kPa	251.9
340 K, 101.33 kPa	254.2
340.22 K, 100 kPa	254.1
343.21 K, 100 kPa	256.3
346.17 K, 100 kPa	258.6
350 K, 101.33 kPa	261
